Source: patent publication US20260118350A1, “Fluorescent Probes for Peroxidase-Mediated Fluorescent Signal Amplification” (Seoul National University R&DB Foundation, priority 2024, published 2026)

Tests used:
[1] = system: HeLa cells transiently expressing TMEM192-V5-APEX2; assay: Lysosome diameter and lysosome-mitochondria contact under lysosomal stressors (JFT1 labeling by TMEM192-V5-APEX2); type: cell-based, Human; details: for fold increase of lysosomal diameter vs DMSO treatment / mean lysosomal diameter: BFA 100 nM or U18666A 2 μg/ml, 18 h; for mitochondria-lysosome co-localization: HeLa cells co-expressing mito-mEosEM and TMEM192-V5-APEX2; for mean lysosomal diameter: mean (±SEM)
Description: Fluorescently labeled lysosome (JFT1-labeled or Lysotracker Red, RFP channel) and mitochondria (mito-mEosEM, GFP channel) area were analyzed using Fiji/ImageJ (National Institutes of Health, USA). Area corresponding to the colocalization of lysosome-mitochondria were delimited manually by thresholding keeping the same threshold for control. The colocalized area was measured for 5 cells in each group. To measure lysosome diameter, we utilized Fiji/ImageJ. Initially, the images were converted to 8-bit and the pixel measurements were calibrated using a scale bar. Circular lysosomes were then selected and a line representing the diameter of each selected lysosome was drawn, referencing the limiting membrane according to the JFT1 fluorescence signal. Subsequently, we utilized the “analyze and measure” feature of ImageJ, which generates a table with various parameters such as area and length. To convert the length from pixels to micrometers, we applied the following formula: (pixel diameter/pixels on the scale bar)×10 μm. Once the values were converted, they were plotted and statistical analysis for unpaired t-test was performed using Prism GraphPad software ([…] et al., 2021). HeLa cells transiently expressing TMEM192-V5-APEX2 were plated on coverslips (thickness no. 1.5, radius 18 mm). The cells were then treated with DMSO or U18666A (2 ug/ml), Bafilomycin A1 (100 nM) in DMEM for 18 h at 37° C. and washed three times with cold DPBS. The cells were fixed in 4% paraformaldehyde for 15 min at room temperature. Next, JFT1 labeling was done using 100 μM of the probe and 1 mM H2O2 for 5 min. Reaction was quenched and cells were permeabilized for immunofluorescence imaging with cold methanol for 5 min at -20° C., followed by washing with DPBS and blocking for 1 h with 2% bovine serum albumin in DPBS at room temperature.

endogenous peroxidases = assay: Reaction with endogenous peroxidases in live cells; type: cell-based; details: high concentrations (≥100 μM) for 1 h in live cells
Description: However, our focus was on utilizing JFT for CLEM imaging under fixed conditions. For live-cell APEX2 labeling experiments, JF or JFA (50-100 μM) was incubated with 1 mM H2O2 for 1 min. Both JF and JFA are cell-permeable and can react with APEX2 under live-cell conditions. […] We observed that a 5-min incubation of high concentrations of JFT1 ([…]) and H2O2 (0.5-1 mM) can generate selective FLEX labeling where APEX2-POIs are expressed (see Methods for details). For live-cell experiments, it would be highly advantageous to further develop JF probes with negligible activity against endogenous peroxidase in live-cell conditions while still maintaining reactivity for the APEX or HRP reaction. Since JFT was synthesized from JFA, this strategy opens up the possibility of generating further variations in JFT or other JF-based probes using various azido-click moieties. This approach could lead to the development of improved probes with enhanced performance for live-cell imaging applications.

HRP = molecular target: T1, HRP (Armoracia rusticana, UniProt P00433); assay: Polymerization of JF catalyzed by HRP; type: biochemical, horseradish
T1 sequence (P00433 31-338 limits assumed): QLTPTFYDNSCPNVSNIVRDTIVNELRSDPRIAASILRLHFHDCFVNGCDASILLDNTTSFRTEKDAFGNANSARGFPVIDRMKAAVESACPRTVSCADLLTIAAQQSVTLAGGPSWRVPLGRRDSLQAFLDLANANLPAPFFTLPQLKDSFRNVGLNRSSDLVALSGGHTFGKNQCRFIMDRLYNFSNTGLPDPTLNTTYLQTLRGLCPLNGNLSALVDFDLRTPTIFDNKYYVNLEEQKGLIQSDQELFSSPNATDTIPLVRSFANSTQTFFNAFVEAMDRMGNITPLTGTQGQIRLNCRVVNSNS
Description: JF (400 μM) was prepared by dissolving the powder in DMSO. To induce the polymerization of JF, 10 μM of HRP was added along with 2 mM H2O2. JF-precipitate starts forming after 30 minutes of incubation with HRP and H2O2. This reaction was carried out at room temperature for 24 h to acquire the polymerized JF. The mixture was centrifuged at 15,000 g for 10 min to separate the polymerized JF product from non-reacted JF.

TOM20-V5-APEX2 = assay: Live-cell APEX labeling using JF probes; type: cell-based, Human; details: 5 min pre-incubation, 1 mM H2O2 1 min, TOM20-V5-APEX2-expressing cells
Description: To visualize various APEX2-POIs in live cells, JF or JFA (50-100 μM) and 1 mM H2O2 were treated to APEX2-POI expressing cells during the live stage. After treatment, cells were washed thrice with DPBS and then fixed with 4% PFA in 1×DPBS for 15 minutes at room temperature. For immuno-fluorescence imaging, cells were permeabilized with −20° C. methanol for 5 minutes, followed by the standard immunofluorescence staining protocol. To detect JF or JFA fluorescence and immunofluorescence, we used the GFP channel (excitation at 488 nm), RFP channel (excitation at 561 nm), and Cy5 channel (excitation at 647 nm) of a confocal light microscope (FV3000, Olympus, Japan). HeLa cells were used for imaging experiments.
Further, the APEX reaction in live cells utilizing the JF probes in cells expressing TOM20-V5-APEX2 at the cytosolic face of the outer mitochondrial membrane (OMM) were examined. Each JF probe (JF, JFA, JFT1, JFT2, and JFT3) was pre-incubated with the cells for 5 min, followed by the addition of 1 mM H2O2 and incubation for 1 min to activate the peroxidase.

SMILES | fold increase of lysosomal diameter vs DMSO treatment [1] [fold] | mitochondria-lysosome co-localization [1] | mean lysosomal diameter [1] [μm] | reactivity with endogenous peroxidases (endogenous peroxidases) | precipitate formation upon HRP-mediated reaction (HRP; HRP and H2O2) | time at which JF-precipitate starts forming (HRP; JF 400 μM, 10 μM HRP, 2 mM H2O2, room temperature) [min] | fluorescence staining in live cells (TOM20-V5-APEX2)
CO/C1=C\C(C)=C\[C@@H](C)[C@@H](O)[C@@H](C)C/C(C)=C/C=C/[C@H](OC)[C@@H]([C@@H](C)[C@@H](O)[C@H](C)[C@@]2(O)C[C@@H](O)[C@H](C)[C@@H](C(C)C)O2)OC1=O [Bafilomycin A1] | 2.7 | more merged patterns | 1.20 | – | – | – | –
CC[n+]1c(/C=C/c2ccc(O)cc2)sc2ccccc21 [JF, (E)-3-ethyl-2-(4-hydroxystyryl)benzo[d]thiazol-3-ium, reference compound] | – | – | – | can also react with endogenous peroxidases | macroscopic precipitate deposition | 30 | red fluorescence stains
C#CC[n+]1c(/C=C/c2ccc(O)cc2)sc2ccccc21 [JFA, (E)-2-(4-hydroxystyryl)-3-(prop-2-yn-1-yl)benzo[d]thiazol-3-ium] | – | – | – | can also react with endogenous peroxidases | – | – | red fluorescence stains
CCN(CC)CCO[C@H]1CC[C@@]2(C)C(=CC[C@@H]3[C@@H]2CC[C@]2(C)C(=O)CC[C@@H]32)C1 [U18666A] | 2.2 | enhanced co-localization | 0.87 | – | – | – | –
